From article PMC8490629, “Metabolites of Procyanidins From Litchi Chinensis Pericarp With Xanthine Oxidase Inhibitory Effect and Antioxidant Activity” (Frontiers in Nutrition, 2021)
Where two headings read alike, the source gives them in different places. Marks after values point to notes of the source that are not given here.

Tests used:
[1] = Urinary excretion of procyanidins and metabolites in rats after oral LPPC (HPLC / LC-MS); format: in vivo, rat; conditions: for Urinary excretion, phenolic acids / Urinary excretion, procyanidin (% to oral dose): rat urine 0-24 h after oral LPPC 300 mg/kg, after glucuronidase/sulfatase deconjugation; for Urinary excretion as share of the oral intake: rat urine, oral LPPC 300 mg/kg bw
Protocol: Male Sprague-Dawley rats weighing 220 ± 20 g were randomly divided into two groups (n = 20) with 10 rats in each group. Prior to administration, animals were deprived of food for 12 h, but had access to deionized water. The LPPC was dissolved in physiological saline and administered orally to rats at a dose of 300 mg/kg body weight. In addition, the physiological saline was administered orally to the rats in another group as control. All the rats were placed in metabolic cages, each rat per cage (Jiayuan Technology Co. Ltd., Beijing, China). The samples of urine excreted from 0 to 24 h postadministration were collected from the bottom of the metabolic cage under chilled conditions using an ice bath and stored at −80°C before analysis, referring to the method described previously ([38]).
The sample of urine was centrifuged at 4,000 r/min for 10 min at 4°C, and the supernatant was collected. The supernatant was acidified to pH = 5.5 with 0.6 mol/l acetic acid and incubated at 37°C for 60 min in the presence of 10 KU β-glucuronidase with the activity of sulfatase. After further acidification to pH = 2 with 6 mol/l HCl, the samples were directly extracted by ethyl acetate × 3. The resulting supernatant was dried under vacuum by rotatory evaporation at 40°C until the ethyl acetate was completely removed and dissolved in 1 ml of 50% methanol. Then, the solution was purified by the solid phase extraction, and the residue was redissolved in methanol and analyzed by LC-MS as described by Li et al. with modifications ([39]).
Selected samples were analyzed on an Agilent 1100 LC-ESI-MS system (Agilent Technologies Co. Ltd., Foster City, California, USA) to identify metabolites in urine. A VP-ODS column (150 × 4.6 mm ID, 5 μm particle size, Shimadzu Co., Kyoto, Japan) was used and 20 μl solution of the sample was injected. The mobile phases consisted of 0.4% (v/v) aqueous acetic acid as A and acetonitrile as B with the following linear gradient: from 5 to 35% B in the first 40 min, from 35 to 50% B in the next 5 min, from 50 to 80% B in the next 5 min, and from 80 to 5% B in the next 5 min, and re-equilibrated with 5% B for 5 min before next injection. The flow rate was 0.2 ml/min and the absorbance of the eluate was monitored at 280 nm. Mass spectra were collected using an electrospray ionization (ESI) ion source in the negative mode under the following conditions: orifice voltage, −30 V; nebulizing pressure, 30 psi; heat capillary temperature, 275°C; and mass range, m/z 100-1,200.

xanthine oxidase = biological target: T1, xanthine oxidase (Bos taurus, UniProt P80457); assay: Xanthine oxidase inhibition assay (uric acid production from xanthine, 295 nm); format: biochemical; conditions: for IC50: read-out: IC50 (μg/ml) xanthine oxidase (converted); for inhibition at 200 µg/mL: read-out: Inhibition (%) at 200 μg/ml
T1 construct: purchased Sigma (St. Louis, MO, USA)

[2] = DPPH radical scavenging activity
Protocol: 1, 1-Diphenyl-2-picrylhydrazyl radical scavenging activity was determined referring to the method described previously ([41]). Litchi pericarp and phenolic acids were dissolved in 1.0 ml of deionized water at various concentrations ranging from 2.0 to 100.0 μg/ml. Then, the solution of the sample was mixed with 1.0 ml of freshly prepared 0.2 mM DPPH ethanolic solution. Control in the experiment was prepared by the same reagent without the sample. All the tubes were incubated at 37°C for 30 min in the dark, and the final solution was recorded at 517 nm. The DPPH radical scavenging activity was calculated using the following equation:
DPPH radical scavenging rate (%) =(Acontrol-Asample)/Acontrol × 100

[3] = Hydroxyl radical scavenging activity
Protocol: Hydroxyl radical scavenging activity was assessed according to the method of Dong et al. ([42]) with modifications. The reagents and samples were added strictly obeying following order: 0.25 ml 1.5 mM phenanthroline ethanolic solution, 0.5 ml phosphoric acid buffer (pH = 7.4), 0.25 ml 1.5 mM freshly prepared ferrous sulfate solution, 0.5 ml sample (0–0.5 mg), and 0.25 ml 0.01% H2O2. The injured tubes in the experiment were prepared by the same reagents except samples, while control was carried out by adding sample without H2O2. The mixtures were shaken and incubated at 37°C for 1 h, and then measured at 536 nm. The hydroxyl radical scavenging activity was calculated using the following equation:
hydroxyl radical scavenging rate (%) =Asample-Ainjured/Acontrol-Ainjured ×100

T1 sequence (P80457 2-1332 limits assumed): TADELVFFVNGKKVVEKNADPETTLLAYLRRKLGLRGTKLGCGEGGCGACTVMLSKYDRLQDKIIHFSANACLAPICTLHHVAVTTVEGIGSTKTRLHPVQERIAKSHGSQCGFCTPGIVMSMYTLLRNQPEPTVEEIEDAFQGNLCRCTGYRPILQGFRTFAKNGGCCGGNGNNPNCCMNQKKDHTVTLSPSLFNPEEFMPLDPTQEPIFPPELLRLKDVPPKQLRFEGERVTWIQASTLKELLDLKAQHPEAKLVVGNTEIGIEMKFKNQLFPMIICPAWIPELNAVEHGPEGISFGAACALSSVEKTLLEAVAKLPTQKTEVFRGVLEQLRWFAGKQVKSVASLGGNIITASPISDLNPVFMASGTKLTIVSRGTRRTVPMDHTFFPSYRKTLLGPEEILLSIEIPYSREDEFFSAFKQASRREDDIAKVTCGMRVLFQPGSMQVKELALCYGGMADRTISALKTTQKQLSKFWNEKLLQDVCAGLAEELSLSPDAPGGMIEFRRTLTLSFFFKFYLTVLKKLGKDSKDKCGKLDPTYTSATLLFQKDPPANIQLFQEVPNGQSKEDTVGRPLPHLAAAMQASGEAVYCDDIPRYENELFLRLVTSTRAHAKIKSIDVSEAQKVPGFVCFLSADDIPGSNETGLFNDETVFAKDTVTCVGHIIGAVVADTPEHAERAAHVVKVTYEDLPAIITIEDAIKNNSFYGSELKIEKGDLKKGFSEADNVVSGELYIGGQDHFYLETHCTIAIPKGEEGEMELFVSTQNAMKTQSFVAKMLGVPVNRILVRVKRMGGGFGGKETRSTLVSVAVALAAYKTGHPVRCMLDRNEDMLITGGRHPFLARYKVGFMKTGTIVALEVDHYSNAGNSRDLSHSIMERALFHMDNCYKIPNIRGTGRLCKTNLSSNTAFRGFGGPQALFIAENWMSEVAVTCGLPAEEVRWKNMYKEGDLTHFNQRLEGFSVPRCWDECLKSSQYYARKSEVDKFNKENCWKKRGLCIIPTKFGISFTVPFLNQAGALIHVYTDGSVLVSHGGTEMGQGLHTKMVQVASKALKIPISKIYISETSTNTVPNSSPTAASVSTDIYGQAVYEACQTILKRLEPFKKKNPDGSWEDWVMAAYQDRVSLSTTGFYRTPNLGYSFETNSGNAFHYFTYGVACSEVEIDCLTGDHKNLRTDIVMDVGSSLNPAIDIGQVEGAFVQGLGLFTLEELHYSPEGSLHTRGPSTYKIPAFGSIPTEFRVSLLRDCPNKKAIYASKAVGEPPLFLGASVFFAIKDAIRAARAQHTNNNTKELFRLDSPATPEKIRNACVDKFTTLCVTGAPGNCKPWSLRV

In the case of `O=C(O)/C=C/c1ccc(O)c(O)c1` [Caffeic acid, caffeic acid], the “Urinary excretion, phenolic acids” value [1] is reported as 20.67 ± 2.68 nmol, the IC50 (xanthine oxidase) is reported as 531 µM and the “IC50 (μg/ml) DPPH·” value [2] is reported as 9.88 ± 0.55^c μg/ml. The “IC50 (μg/ml) ·OH” value [3] was 161.47 ± 3.31^c μg/ml.

Molecule `Oc1ncnc2[nH]ncc12` [Allopurinol, reference compound] has an inhibition at 200 µg/mL (xanthine oxidase) of 85.6 ± 3.13%.

For `O=C(O)CCc1cccc(O)c1` [3-Hydroxyphenylpropionic acid, 3-hydroxyphenylpropionic acid], the “Urinary excretion, phenolic acids” value [1] was 12.87 ± 3.06 nmol, the IC50 (xanthine oxidase) was > 1200 µM and the inhibition at 200 µg/mL (xanthine oxidase; xanthine oxidase, 200 μg/ml) was 27 ± 1.44%. The “IC50 (μg/ml) DPPH·” value [2] was 77.83 ± 0.93^g μg/ml, the “IC50 (μg/ml) DPPH·” value ([2]; listed as 3-hydroxyphenylpropionic acid) was > 50 µg/mL and the “IC50 (μg/ml) ·OH” value [3] was 841.57 ± 4.45^h μg/ml.

With `Oc1cc(O)c2c(c1)OC1(c3ccc(O)c(O)c3)Oc3cc(O)c4c(c3C2C1O)OC(c1ccc(O)c(O)c1)C(O)C4c1c(O)cc(O)c2c1OC(c1ccc(O)c(O)c1)C(O)C2` (stereo not drawn) [A-type trimer] the “Urinary excretion, procyanidin (% to oral dose)” value [1] was 0.43 ± 0.02 % to oral dose, the “Urinary excretion as share of the oral intake” value (“Urinary excretion as share” for short) [1] was 0.43 ± 0.02 % (mol/mol) and the IC50 (xanthine oxidase) was 86.6 µM. The inhibition at 200 µg/mL (xanthine oxidase; xanthine oxidase, 200 μg/ml) was > 50%, the “IC50 (μg/ml) DPPH·” value [2] was 8.00 ± 0.18^b μg/ml and the “IC50 (μg/ml) ·OH” value [3] was 122.73 ± 2.35^a μg/ml.

In the case of `O=C(O)/C=C/c1ccc(O)cc1` [p-Coumaric acid, p-coumaric acid], the “Urinary excretion, phenolic acids” value [1] is reported as 13.89 ± 1.65 nmol, the IC50 (xanthine oxidase) is reported as 852 µM and the inhibition at 200 µg/mL (xanthine oxidase; xanthine oxidase, 200 μg/ml) is reported as 57.4 ± 0.62%. The “IC50 (μg/ml) DPPH·” value [2] was 16.53 ± 0.65^d μg/ml and the “IC50 (μg/ml) ·OH” value [3] was 220.13 ± 4.57^e μg/ml.

In the case of `O=C(O)CCc1ccc(O)cc1` [4-Hydroxyphenylpropionic acid, 4-hydroxyphenylpropionic acid], the “Urinary excretion, phenolic acids” value [1] is reported as 60.54 ± 3.18 nmol, the IC50 (xanthine oxidase) is reported as > 1200 µM and the inhibition at 200 µg/mL (xanthine oxidase; xanthine oxidase, 200 μg/ml) is reported as 29.4 ± 0.75%. The “IC50 (μg/ml) DPPH·” value [2] was 74.63 ± 1.40^f μg/ml, the “IC50 (μg/ml) DPPH·” value ([2]; listed as 4-hydroxyphenylpropionic acid) was > 50 µg/mL and the “IC50 (μg/ml) ·OH” value [3] was 813.87 ± 5.48^g μg/ml.

In the case of `O=C(O)C1=C[C@@H](O)[C@@H](O)[C@H](O)C1` [Shikimic acid, shikimic acid], the “Urinary excretion, phenolic acids” value [1] is reported as 27.22 ± 7.02 nmol, the IC50 (xanthine oxidase) is reported as 552 µM and the “Inhibition (%) at 200 μg/ml” value (xanthine oxidase; xanthine oxidase, 200 μg/ml) is reported as 61.13 ± 0.81^f %. For the same molecule, the inhibition at 200 µg/mL (xanthine oxidase; xanthine oxidase, 200 μg/ml) was > 50%, the “IC50 (μg/ml) DPPH·” value [2] was 8.96 ± 0.18b^c μg/ml and the “IC50 (μg/ml) ·OH” value [3] was 186.53 ± 7.56^d μg/ml.

With `O=C(O)/C=C/c1cccc(O)c1` [m-Coumaric acid, m-coumaric acid] the “Urinary excretion, phenolic acids” value [1] was 39.01 ± 7.33 nmol, the IC50 (xanthine oxidase) was 942 µM and the inhibition at 200 µg/mL (xanthine oxidase; xanthine oxidase, 200 μg/ml) was 52.8 ± 1.57%. The “IC50 (μg/ml) DPPH·” value [2] was 21.93 ± 1.25^e μg/ml and the “IC50 (μg/ml) ·OH” value [3] was 256.43 ± 9.33^f μg/ml.

For `Oc1cc(O)c2c(c1)O[C@H](c1ccc(O)c(O)c1)[C@H](O)C2` [(-)-Epicatechin, (-)-epicatechin], the “Urinary excretion, procyanidin (% to oral dose)” value [1] was 0.21 ± 0.04 % to oral dose, the “Urinary excretion as share” value [1] was 0.21 ± 0.04 % (mol/mol) and the IC50 (xanthine oxidase) was 201 µM. For the same molecule, the “Inhibition (%) at 200 μg/ml” value (xanthine oxidase; xanthine oxidase, 200 μg/ml) was 78.63 ± 1.72^b %, the “Inhibition (%) at 200 μg/ml” value (xanthine oxidase; xanthine oxidase, 200 μg/ml, listed as epicatechin) was “higher than 50%” and the “IC50 (μg/ml) DPPH·” value [2] was 5.43 ± 0.10^a μg/ml. For the same molecule, the “IC50 (μg/ml) ·OH” value [3] was 121.27 ± 1.80^a μg/ml.

For `O=C(O)Cc1cccc(O)c1` [3-Hydroxyphenylacetic acid, 3-hydroxyphenylacetic acid], the “Urinary excretion, phenolic acids” value [1] was 46.98 ± 3.76 nmol, the IC50 (xanthine oxidase) was > 1310 µM and the inhibition at 200 µg/mL (xanthine oxidase; xanthine oxidase, 200 μg/ml) was 21.1 ± 1.78%. For the same molecule, the “IC50 (μg/ml) DPPH·” value [2] was 82.60 ± 1.95^h μg/ml, the “IC50 (μg/ml) DPPH·” value ([2]; listed as 3-hydroxyphenylacetic acid) was > 50 µg/mL and the “IC50 (μg/ml) ·OH” value [3] was 803.47 ± 6.38^g μg/ml.

With `COc1cc(C(=O)O)ccc1O` [Vanillic acid, vanillic acid] the “Urinary excretion, phenolic acids” value [1] was 6.62 ± 2.79 nmol, the IC50 (xanthine oxidase) was > 1190 µM and the inhibition at 200 µg/mL (xanthine oxidase) was 25 ± 1.47%. For the same molecule, the “IC50 (μg/ml) DPPH·” value [2] was 86.06 ± 1.33^i μg/ml, the “IC50 (μg/ml) DPPH·” value ([2]; listed as vanillic acid) was > 50 µg/mL and the “IC50 (μg/ml) ·OH” value [3] was 897.33 ± 9.90^i μg/ml.

In the case of `Oc1cc(O)c2c(c1)OC1(c3ccc(O)c(O)c3)Oc3cc(O)c4c(c3C2C1O)OC(c1ccc(O)c(O)c1)C(O)C4` (stereo not drawn) [A-type dimer], the “Urinary excretion, procyanidin (% to oral dose)” value [1] is reported as 0.54 ± 0.09 % to oral dose, the “Urinary excretion as share” value [1] is reported as 0.54 ± 0.09 % (mol/mol) and the IC50 (xanthine oxidase) is reported as 119 µM. For the same molecule, the “IC50 (μg/ml) DPPH·” value [2] was 5.86 ± 0.14^a μg/ml and the “IC50 (μg/ml) ·OH” value [3] was 126.57 ± 2.58^a μg/ml.
